Key:
Type in all cases: in vivo
[1] = system: longtail mealy bug (Pseudococcus longispinus); test: Spray to runoff of infested Euonymus leaves, longtail mealy bug; details: ten bugs on variegated Euonymus leaves sprayed until runoff, assessed after 24 hours
Protocol: Formulations of geraniol, cedar oil and mixtures thereof were evaluated for contact toxicity against the Lasius ant (Lasius niger), lady beetle (Harmonia axyridis), brown stink bug (Halyomorpha halys), green peach aphid (Myzus persicae), house cricket (Acheta domesticus) and longtail mealy bug (Pseudococcus longispinus). The plant oil test solutions were prepared by dissolving the appropriate amount of the plant oil(s) in deionized water containing 0.5% by weight sodium laureth sulfate, for example 4.4 grams of geraniol was dissolved in 1 liter of deioinized water containing 5 grams of sodium laureth sulfate to prepare a 0.44% test solution of geraniol. Each test solution was poured into a 16 ounce spray can, a valve was installed and the can was charged with carbon dioxide as the propellant. Direct spraying of the test substance onto insects was performed to determine the efficacy of each test solution as follows:
Longtail mealy bug test—In separate tests, ten longtail mealy bugs were established on several leaves of a variegated Euonymus plant, the infested leaves were sprayed with the appropriate test solution until runoff.

[2] = system: house cricket (Acheta domesticus); test: Direct spray contact toxicity, house cricket; details: ten insects on concrete slab, directly sprayed for 2 seconds
Protocol: (§1) Formulations of geraniol, cedar oil and mixtures thereof were evaluated for contact toxicity against the Lasius ant (Lasius niger), lady beetle (Harmonia axyridis), brown stink bug (Halyomorpha halys), green peach aphid (Myzus persicae), house cricket (Acheta domesticus) and […] bug (Pseudococcus longispinus). […] Each test solution was poured into a 16 ounce spray can, a valve was installed and the can was charged with carbon dioxide as the propellant. Direct spraying of the test substance onto insects was performed to determine the efficacy of each test solution as follows: Brown stink bug and house cricket test-In separate tests, ten insects of each species were placed onto a concrete slab and directly sprayed for 2 seconds with the appropriate test solutions.

[3] = system: Lasius ant (Lasius niger); test: Direct spray contact toxicity, Lasius ant; details: ten insects on asphalt slab, directly sprayed for 2 seconds
Protocol: as §1, with “follows: Lasius ant” for “follows: Brown stink bug”, “and lady beetle” for “and house cricket”, “onto an asphalt” for “onto a concrete”

[4] = system: lady beetle (Harmonia axyridis); test: Direct spray contact toxicity, lady beetle; details: ten insects on asphalt slab, directly sprayed for 2 seconds
Protocol: as §1, with “follows: Lasius ant” for “follows: Brown stink bug”, “and lady beetle” for “and house cricket”, “onto an asphalt” for “onto a concrete”

[5] = system: brown stink bug (Halyomorpha halys); test: Direct spray contact toxicity, brown stink bug; details: ten insects on concrete slab, directly sprayed for 2 seconds
Protocol: as §1

[6] = system: green peach aphid (Myzus persicae); test: Spray to runoff of infested bell pepper plant, green peach aphid; details: infested bell pepper plant sprayed until runoff
Protocol: as §1, with “Green peach aphid” for “Brown stink bug and house cricket”, “tests,” for “tests, ten insects of each species were placed onto”, “bell pepper plant, infested with green peach aphids, was” for “concrete slab and directly”, “sprayed” for “sprayed for 2 seconds”, “solution until runoff.” for “solutions.”

CC(C)=CCC/C(C)=C/CO [0.44% geraniol, trans-3,7-dimethyl-2,6-octadien-1-ol]
mortality at 24 hours [1]: 50% mortality at | Recovery from knockdown [2]: None | Time to 100% Knockdown [2]: 60 s | Time to 100% mortality [2]: 3 h | Recovery from knockdown [3]: None | Time to 100% Knockdown [3]: 9 s | Time to 100% mortality [3]: 20 s | Recovery from knockdown [4]: None | Time to 100% Knockdown [4]: 20 s | Time to 100% mortality [4]: 60 s | Recovery from knockdown [5]: None | Time to 100% Knockdown [5]: 20 s | Time to 100% mortality [5]: 90 s | Recovery from knockdown [6]: None | Time to 100% Knockdown [6]: No apparent | Time to 100% mortality [6]: 3 h
